# Laboratory results from patent US20020132319A1, “Peptide mutant of human ERAB or HADH2, its X-ray crystal structure, and materials and method for identification of inhibitors thereof” (priority 2000, published 2002).
# Entries after “also recorded” stand apart in the source; their conditions may differ.
# Experiments:
# [1] = target: T1, ERAB or HADH2 (Homo sapiens, UniProt Q99714); test: Spectrophotometric ERAB or HADH2 inhibition assay (NADH, acetoacetyl-CoA as substrate); format: biochemical
# T1 construct: made in house; host or cells: E. coli (plasmid pMGH4)
# T1 sequence (Q99714 1-261): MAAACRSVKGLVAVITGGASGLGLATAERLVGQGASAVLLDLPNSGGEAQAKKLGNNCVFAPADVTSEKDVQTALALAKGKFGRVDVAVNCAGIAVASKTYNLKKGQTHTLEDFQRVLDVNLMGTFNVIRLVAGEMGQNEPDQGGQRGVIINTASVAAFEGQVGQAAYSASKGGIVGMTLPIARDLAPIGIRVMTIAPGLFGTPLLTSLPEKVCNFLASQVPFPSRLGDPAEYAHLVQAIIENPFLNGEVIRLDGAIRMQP
# Description: The IC50 value for Compound I was determined spectrophotometrically by monitoring the […] of NADH to NAD^+ with acetoacetyl-CoA as substrate. Enzyme (2.5 nM) was preincubated with inhibitor for 400 seconds at 30° C. in the presence of 36 uM NADH, 25 mM MOPS, pH 7.5, 250 mM NaCl, 2% (v/v) DMSO, and 2.5 mM TCEP. The reaction was initiated by addition of substrate (38 μM). Reduction of NADH was monitored at […]. The IC50 value was determined by non-linear regression analysis using KaleidaGraph (obtained from Synergy Software, Reading, Pa.).
# [2] = target: E. coli 17β-hydroxysteroid dehydrogenase (Escherichia coli, UniProt P0AET8); test: Inhibition of related SDR family member (E. coli enzyme); format: biochemical; details: at concentrations as high as 100 μM
# E. coli 17β-hydroxysteroid dehydrogenase, sequence (P0AET8 whole entry): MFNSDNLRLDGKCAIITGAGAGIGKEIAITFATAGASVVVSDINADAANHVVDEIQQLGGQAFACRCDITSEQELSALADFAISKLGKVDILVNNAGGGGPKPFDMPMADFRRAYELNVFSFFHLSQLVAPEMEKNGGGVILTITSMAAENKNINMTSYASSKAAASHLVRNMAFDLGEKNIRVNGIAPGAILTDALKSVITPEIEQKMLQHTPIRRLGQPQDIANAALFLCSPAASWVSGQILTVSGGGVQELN
# [3] = target: T2, wild-type ERAB or HADH2 (Homo sapiens, UniProt Q99714); test: Isothermal titration calorimetry, inhibitor binding experiments
# T2 construct: made in house; host or cells: E. coli (plasmid pMGH4; spontaneous mutant of strain BL21(DE3), 'B121 (DE3)' [sic])
# T2 sequence (Q99714 1-261): T1 sequence (Q99714 1-261)
# Description: FIG. 5 is a plot of integrated-binding data obtained for a calorimetric titration of wild-type ERAB or HADH2 into Compound I in the presence and absence of cofactor. Wild-type ERAB or HADH2 (415 μM) was titrated into 20 μM inhibitor in the presence and absence of 20 μM cofactor at 15° C. The closed symbols represent the integrated-data points for 10 μL injections of ERAB or HADH2 into inhibitor in the absence of cofactor (♦); in the presence of NAD^+ (●); and in the presence of NADH (▪). The open symbols represent the integrated data points for the corresponding control titrations of ERAB or HADH2 into buffer (Δ); in the presence of NAD^+ (∘); and in the presence of NADH (□). Lines connecting the data points have been added for visual clarity.
# (§1) Titrations described herein were performed with an MCS microcalorimeter (obtained from MicroCal, Inc., Northampton, […].).
# (§2) For the inhibitor binding experiments, the titrations were performed in 25 mM MOPS (pH 7.5), 125 mM NaCl, 10% glycerol, 2.0% DMSO, 0.5 mM TCEP (Tri(2-carboxyethyl)phosphine), 0.1 mM EDTA at 15° C. The syringe contained 415 μM wild-type ERAB or HADH2 and the cell contained either 20 μM inhibitor, 20 μM cofactor, or 20 μM each of inhibitor and cofactor. After a preliminary 20 μL injection, 12 injections of 10.0 μL each were made at 4 minute intervals. Dilution control titrations of buffer into buffer, protein into buffer, and buffer into inhibitor, cofactor and inhibitor/cofactor mixture were also performed. For the cofactor binding experiments, the titrations were performed in 50 mM MOPS (3-(N-morpholino) propanesulfonic acid, pH 7.5), 250 mM NaCl, 10% glycerol, 2.0% DMSO, 10 mM TCEP at 15° C.
# [4] = target: Streptomycetes hydrogenans 3α-20β- hydroxysteroid dehydrogenase (Streptomyces exfoliatus, UniProt P19992); test: Inhibition of related SDR family member (Streptomyces enzyme); format: biochemical; details: at concentrations as high as 100 μM
# Streptomycetes hydrogenans 3α-20β- hydroxysteroid dehydrogenase, sequence (P19992 whole entry): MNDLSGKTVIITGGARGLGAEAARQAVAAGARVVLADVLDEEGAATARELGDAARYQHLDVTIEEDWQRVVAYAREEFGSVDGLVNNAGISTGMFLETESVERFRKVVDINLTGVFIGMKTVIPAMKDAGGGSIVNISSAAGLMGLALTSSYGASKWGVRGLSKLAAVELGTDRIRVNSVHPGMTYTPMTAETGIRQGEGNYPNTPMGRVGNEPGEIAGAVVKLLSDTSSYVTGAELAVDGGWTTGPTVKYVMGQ
# [5] = target: T2, wild-type ERAB or HADH2; test: Isothermal titration calorimetry, cofactor binding experiments; details: 2.68 mM cofactor titrated into 127 μM wild-type ERAB or HADH2, 15° C.; read-out: Kd for NAD+
# Description: as §1, §2
# For the NADH titration, the syringe contained 700 μM cofactor and the cell contained 35 μM wild type ERAB or HADH2. For the NAD^+ titration, the syringe contained 2.68 mM cofactor and the cell contained 127 μM wild-type ERAB or HADH2.
Structure (SMILES),IC50 against ERAB ([1]; Compound I made according to Scheme 1) [µM],"average IC50 against ERAB or HADH2 ([1]; Compound I made according to Scheme 2, racemic mixture) [µM]",inhibition of E. coli 17β-hydroxysteroid dehydrogenase [2],"ITC binding to ERAB or HADH2 in the absence of cofactor ([3]; ERAB 415 μM titrated into 20 μM inhibitor alone, 15° C.)","ITC binding to ERAB or HADH2 in the presence of NAD+ ([3]; ERAB titrated into equimolar 20 μM inhibitor and NAD+, 15° C.)","ITC binding to ERAB or HADH2 in the presence of NADH ([3]; ERAB titrated into equimolar 20 μM inhibitor and NADH, 15° C.)",binding to ERAB or HADH2 more potent with NAD+ than in the absence of NAD+ ([3]; with NAD+ versus absence of NAD+),inhibition of Streptomycetes hydrogenans 3α-20β-hydroxysteroid dehydrogenase [4],"ITC binding when ERAB or HADH2 titrated into cofactor alone ([3]; ERAB 415 μM titrated into 20 μM NAD+ alone, 15° C.)",Kd [5] [µM]
"O=C(C(c1ccccc1)n1cnc2[nH]ncc2c1=S)N1CCCCCC1 (racemic) [Compound I, 1-azepan-1-yl-2-phenyl-2-(4-thioxo-1,4-dihydro-pyrazolo[3,4-d]pyrimidin-5-yl)-ethanone]",0.088,0.092 ± 0.005,no detectable inhibition,binds weakly; also recorded: No binding was detected,tight-binding curve,binds weakly,approximately 1000 fold,no detectable inhibition,,
"NC(=O)c1ccc[n+]([C@@H]2O[C@H](COP(=O)([O-])OP(=O)(O)OC[C@H]3O[C@@H](n4cnc5c(N)ncnc54)[C@H](O)[C@@H]3O)[C@@H](O)[C@H]2O)c1 [NAD^+, reference compound]",,,,,,,,,No binding was detected,~500
